# Test results taken from US4826845A, “3(2H)-pyridazinones and pharmaceutical compositions thereof” (Richter Gedeon Vegyeszeti Gyar T.R., priority 1985, dated 1989).
# Where a name gives a salt, the structure may show the parent alone.
# Legend:
# anaesthetized dogs = assay: Hypotensive and heart rate effects on anaesthetized dogs after intravenous or intraduodenal administration; type: in vivo, Beagle dog
# Protocol: Beagle dogs of both sexes were anaesthetized by the intravenous administration of 40 mg/kg of sodium pentobarbital. A cannula was introduced to the femoral artery and vein each on one side for the intravenous administration of the compounds to be tested as well as for measuring the blood pressure.
# In an other series of these experiments, the substances were administered through a duodenal tube. Similarly to the experiments carried out on cats, the systemic arterial blood pressure was measured by using an electromanometer and the cardiotachometer was triggered by the heart rate wave sign. […]
# anaesthetized cats = assay: Measurement of the hypotensive effect on anaesthetized cats (i.v. screening); type: in vivo, cat
# Protocol: A tube was introduced into the trachea of cats anaesthetized by the intraperitoneal (i.p.) administration of 35 mg/kg of sodium pentobarbital whereby the spontaneous breathing was supported. On the one side of the animals, the femoral artery and vein were exposed and a polyethylene cannula was introduced in both vessels each. The substances to be tested were administered through the venous cannula. The mean arterial blood pressure was measured by connecting the arterial cannula with a Statham P 23 Db pressure transducer and electromanometer.
# As a first screening dose, 5 mg/kg of the compounds to be tested were intravenously (i.v.) administered.
smiles,measurement,setting,value
"O=c1cccnn1CCCNCC1COc2ccccc2O1 (stereo not shown) [Example 3 (or 12), 2-[3-(benzo[1,4]dioxan-2-yl-methylamino)-1-propyl]-3(2H)-pyridazinone hydrochloride]",decrease in the systemic arterial blood pressure,anaesthetized dogs; 1.0 mg/kg i.v.,50%
same,half-life of the effect,anaesthetized dogs; 1.0 mg/kg i.v.,30 min
same,heart rate effect (in words),anaesthetized dogs; 1.0 mg/kg i.v.,"bradycardia was observed during the first 5 minutes, then the alteration was not significant"
same,decay of the hypotensive effect (in words),anaesthetized dogs; 1.0 mg/kg intraduodenal,only halved at the end of the first hour
same,decrease in the systemic arterial blood pressure,anaesthetized dogs; 1.0 mg/kg intraduodenal,30%
same,tachycardia,anaesthetized dogs; 1.0 mg/kg intraduodenal,about 20%
same,time maximum effect remained constant,anaesthetized dogs; 1.0 mg/kg intraduodenal,30 min
same,time of maximum effect,anaesthetized dogs; 1.0 mg/kg intraduodenal,5 min
same,hypotensive activity compared with verapamil (in words),anaesthetized dogs; any of the two routes,higher than that of verapamil
same,hypotensive activity compared with prazosine (in words),anaesthetized dogs; intraduodenal,reached that of prazosine
same,hypotensive effect (in words),anaesthetized dogs; intravenous and intraduodenal,strong hypotensive effect
same,Mean arterial pressure decrease,"anaesthetized cats; anaesthetized cats, 5.0 mg/kg i.v.",-95 Hgmm
same,blood pressure lowering action (in words),"anaesthetized cats; intravenous, summary of Table 1",particularly expressed
